Measurements as given in ChEMBL document CHEMBL1201862, “PubChem BioAssay data set” (2004).
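Compound exposure: 48 hours, 5 concentrations, 96-well plates. GI50 is the concentration that inhibits growth by half.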 Calls of active or inactive are those of the source. Rule as the data show it: active = GI50 up to about 1.1 µM and inactive = higher.

Key:
Assay in all cases: growth of human tumour cells (NCI), 48 h
MDA-MB-435 = tested on: MDA-MB-435
786-0 = tested on: 786-0
MCF7 = tested on: MCF7
T47D = tested on: T47D
DU-145 = tested on: DU-145
PC-3 = tested on: PC-3
HCC 2998 = tested on: HCC 2998
SNB-19 = tested on: SNB-19
NCI-H23 = tested on: NCI-H23
IGROV-1 = tested on: IGROV-1
KM12 = tested on: KM12
LOX IMVI = tested on: LOX IMVI
HOP-62 = tested on: HOP-62
SW-620 = tested on: SW-620
Malme-3M = tested on: Malme-3M
NCI-H522 = tested on: NCI-H522
OVCAR-3 = tested on: OVCAR-3
SK-OV-3 = tested on: SK-OV-3
SK-MEL-2 = tested on: SK-MEL-2
HT-29 = tested on: HT-29

Measured: GI50

OCC(CCc1ccccc1I)C1=CCC2(CC1)OCCO2 (stereo not given)
inactive: MDA-MB-435 15.7 µM | 786-0 19.9 µM | MCF7 23.3 µM | T47D 17.7 µM | DU-145 19.5 µM | PC-3 22.4 µM | HCC 2998 20.4 µM | SNB-19 18.5 µM | NCI-H23 20.5 µM | IGROV-1 16.7 µM | KM12 16.4 µM | LOX IMVI 14.9 µM | HOP-62 18.2 µM | SW-620 23.4 µM | Malme-3M 17.8 µM | NCI-H522 15.2 µM | OVCAR-3 18.6 µM | SK-OV-3 39 µM | SK-MEL-2 23.9 µM | HT-29 18.2 µM

C=C(CN)CO[Si](C)(C)C(C)(C)C
inactive: MDA-MB-435 > 100 µM | 786-0 > 100 µM | MCF7 > 100 µM | T47D > 100 µM | DU-145 > 100 µM | PC-3 > 100 µM | HCC 2998 > 100 µM | SNB-19 > 100 µM | NCI-H23 > 100 µM | IGROV-1 > 100 µM | KM12 > 100 µM | LOX IMVI > 100 µM | HOP-62 > 100 µM | SW-620 > 100 µM | Malme-3M > 100 µM | NCI-H522 > 100 µM | OVCAR-3 > 100 µM | SK-OV-3 > 100 µM | SK-MEL-2 > 100 µM | HT-29 > 100 µM

COc1cc2c(cc1OC)C(=O)N(c1ccc(OCCN3CCCC3)cc1)C2
inactive: MDA-MB-435 > 100 µM | 786-0 > 100 µM | MCF7 > 100 µM | T47D > 100 µM | DU-145 > 100 µM | PC-3 > 100 µM | HCC 2998 > 100 µM | SNB-19 > 100 µM | NCI-H23 > 100 µM | IGROV-1 > 100 µM | KM12 > 100 µM | LOX IMVI > 100 µM | HOP-62 > 100 µM | SW-620 > 100 µM | Malme-3M > 100 µM | NCI-H522 > 100 µM | OVCAR-3 > 100 µM | SK-OV-3 > 100 µM | SK-MEL-2 > 100 µM | HT-29 > 100 µM

Cc1cc(C)n(C(C)(C(=O)Cc2ccccc2)n2nc(C)cc2C)n1
inactive: MDA-MB-435 > 100 µM | 786-0 > 100 µM | MCF7 > 100 µM | T47D > 100 µM | DU-145 > 100 µM | PC-3 > 100 µM | HCC 2998 > 100 µM | SNB-19 > 100 µM | NCI-H23 > 100 µM | IGROV-1 > 100 µM | KM12 > 100 µM | LOX IMVI > 100 µM | HOP-62 > 100 µM | SW-620 > 100 µM | Malme-3M > 100 µM | NCI-H522 > 100 µM | OVCAR-3 > 100 µM | SK-OV-3 > 100 µM | SK-MEL-2 > 100 µM | HT-29 > 100 µM
